This note sets out measurements from US9040565B2, “1H-benzimidazole-5-carboxamides as anti-inflammatory agents” (Orexo AB, priority 2008, dated 2015).

The assay concerns the target T1, recombinant human mPGES-1 (Homo sapiens, UniProt O14684).
T1 construct: made in house; host or cells: Rosetta E. coli (microsomal/membrane fraction)
T1 sequence (O14684 1-152): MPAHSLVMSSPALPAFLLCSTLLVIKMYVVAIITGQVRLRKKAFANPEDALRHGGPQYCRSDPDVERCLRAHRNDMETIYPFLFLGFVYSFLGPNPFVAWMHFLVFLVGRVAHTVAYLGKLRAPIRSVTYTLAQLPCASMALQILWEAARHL
Description: mPGES-1 inhibition, HTRF detection of PGE2 (Biological Test). Format: biochemical. The method, then:
Microsomes from Rosetta E. coli bacteria expressing recombinant human mPGES-1 is dissolved in 0.1 M KPi pH 7.4 buffer containing 2.5 mM GSH. 50 μl of the enzyme is subsequently dispensed in a 384-well plate. 0.5 μl of the inhibitor dissolved in DMSO at is thereafter added to each well and incubated for 25 minutes at room temperature.
Subsequently, 2 μl of PGH2 dissolved in an appropriate solvent is added to each well and after one minute the acidified stop solution containing FeCl2 is added. 4 μl of the total volume is transferred to a separate plate and diluted 750-fold in two separate steps before HTRF detection of PGE2.
The HTRf detection is performed by the use of a commercially available kit from CisBio essentially according to the manufacturer's protocol. Briefly, 10 μl of the diluted sample is transferred to a white 384-well plate. 5 μl of d2 and 5 μl Eu3+-Cryptate labeled anti-PGE2 is added to each well containing samples by the use of a Multidrop. The plate is covered with a plastic self-adhesive film, centrifuged at 1200 rpm for 1 minute and subsequently stored at +4° C. over night.
After over night incubation the fluorescence is measured by the use of an appropriate microplate reader. The fluorescence of europium cryptate, and d2 are measured using the following excitation and emission wavelength, europium cryptate: λmax^ex=307 nm, λmax^em=620 nm and d2: λmax^ex=620 nm, λmax^em=665 nm), respectively. The extent of the specific FRET is measured as a ratio of the emission intensity at 665 nm vs. that at 620 nm. A standard curve using synthetic PGE2 is used to quantify the amount of PGE2 in unknown samples.
(Time-resolved FRET reads energy transfer from a long-lived donor to a nearby acceptor.)
The inhibition is how much of the control response was suppressed. As for `Cn1c(Nc2c(Cl)cncc2Cl)nc2cc(C(=O)NCc3ccccc3C(F)(F)F)ccc21` [Example 467, 2-(3,5-Dichloropyridin-4-ylamino)-1-methyl-N-(2-trifluoromethyl-benzyl)-1H-benzimidazole-5-carboxamide], the inhibition at 10 µM worked out at 96%. The value for `CC1(C)CCC(NC(=O)c2cc3nc(Nc4c(Cl)cncc4Cl)[nH]c3cc2F)CC1` [Example 673, 2-(3,5-Dichloro-pyridin-4-yl-amino)-6-fluoro-N-(4,4-dimethyl-cyclohex-1-yl)-1H-benzimidazole-5-carboxamide] was 100%. In the case of `Cn1c(Nc2c(Cl)cncc2Cl)nc2cc(C(=O)NC3CCC(C)(C)CC3)ccc21` [Example 435, 2-(3,5-dichloropyridin-4-ylamino)-N-(4,4-dimethylcyclohexyl)-1-methyl-1H-benzimidazole-5-carboxamide] it was 100%; in that of `COc1cc2[nH]c(Nc3c(Cl)cncc3Cl)nc2cc1C(=O)Nc1cc(C(F)(F)F)cc(N(C)C)n1` [Example 692, 2-(3,5-Dichloropyridin-4-ylamino)-N-(6-dimethylamino-4-trifluoromethyl-pyridin-2-yl)-6-methoxy-1H-benzimidazole-5-carboxamide], 95%. In the case of `CCOc1cc2[nH]c(Nc3c(Cl)cncc3Cl)nc2cc1C(=O)Nc1ccc(F)c(C(F)F)n1` [Example 710, 2-(3,5-Dichloropyridin-4-ylamino)-N-(5-fluoro-6-difluoromethyl-pyridin-2-yl)-6-ethoxy-1H-benzimidazole-6-carboxamide] it was 98%; in that of `COCCOc1cc2c(cc1C(=O)Nc1ccc(Br)cc1)nc(Nc1c(Cl)cncc1Cl)n2C` [Example 666, 2-(3,5-Dichloropyridin-4-ylamino)-N-(4-bromophenyl)-6-(2-methoxy-ethoxy)-1-methyl-1H-benzimidazole-5-carboxamide], 100%. Turning to `O=C(NCC(F)(F)C(F)(F)C(F)(F)C(F)(F)F)c1cc2nc(Nc3ncc(Cl)cc3Cl)[nH]c2cc1OC(F)F` [Example 700, 2-(3,5-Dichloro-pyridin-2-yl-amino)-N-(2,2,3,3,4,4,5,5,5-nonafluoro-pentyl)-6-(difluoromethoxy)-1H-benzimidazole-5-carboxamide], the inhibition at 10 µM was determined as 98%. With `CCOc1cc2[nH]c(Nc3c(Cl)cncc3Cl)nc2cc1C(=O)Nc1ccc(Br)cc1` [Example 695, 2-(3,5-Dichloropyridin-4-ylamino)-N-(4-bromo-phenyl)-6-ethoxy-1H-benzimidazole-6-carboxamide], the inhibition at 10 µM was determined as 94%. For `Cc1cnccc1Nc1nc2cc(C(=O)Nc3ccc(Br)cc3)ccc2n1C` [Example 567, N-(4-Bromophenyl)-1-methyl-2-(3-methylpyridin-4-ylamino)-1H-benzimidazole-5-carboxamide], the inhibition at 10 µM was found to be 80%. The value for `CCOc1cc2[nH]c(Nc3c(Cl)cncc3Cl)nc2cc1C(=O)NCc1ncccc1C(F)(F)F` [Example 667, 2-(3,5-Dichloropyridin-4-ylamino)-N-((3-trifluoromethyl-pyridin-2-yl)-methyl)-6-ethoxy-1H-benzimidazole-5-carboxamide] was 99%; that for `CCOc1cc2c(cc1C(=O)NCc1ncccc1C(F)(F)F)nc(Nc1c(Cl)cncc1Cl)n2C` [Example 668, 2-(3,5-Dichloropyridin-4-ylamino)-N-((3-trifluoromethyl-pyridin-2-yl)-methyl)-6-ethoxy-1-methyl-1H-benzimidazole-5-carboxamide] was 100%. On to `Cc1ccnc(Cl)c1Nc1nc2ccc(C(=O)Nc3cccc(Cl)c3)cc2[nH]1` [Example 521, 2-(2-Chloro-4-methylpyridin-3-ylamino)-N-(3-chlorophenyl)-1H-benzimidazole-5-carboxamide], for which the inhibition at 10 µM worked out at 95%. The value for `CN(C)CCOc1cc2[nH]c(Nc3c(Cl)cncc3Cl)nc2cc1C(=O)Nc1ccc(Br)cc1` [Example 687, 2-(3,5-Dichloro-pyridin-4-ylamino)-6-(2-dimethylamino-ethoxy)-N-(4-bromo-phenyl)-1H-benzimidazole-5-carboxamide] was 96%; that for `O=C(Nc1cc(C(F)(F)F)ccn1)c1cc2nc(Nc3c(Cl)cncc3Cl)[nH]c2cc1OC(F)F` [Example 702] was 95%. The value for `O=C(N[C@H]1CC[C@H](C(F)(F)F)CC1)c1cc2nc(Nc3c(Cl)cncc3Cl)[nH]c2cc1OCC(F)(F)F` [Example 675, 2-(3,5-Dichloro-pyridin-4-yl-amino)-6-(2,2,2-trifluoro-ethoxy)-N-(trans-4-trifluoromethyl-cyclohex-1-yl)-1H-benzimidazole-5-carboxamide] was 100%; that for `CN(C)c1cc(C(F)(F)F)cc(NC(=O)c2cc3nc(Nc4c(Cl)cncc4Cl)[nH]c3cc2OCC(F)(F)F)n1` [Example 656, 2-(3,5-Dichloro-pyridin-4-yl-amino)-6-(2,2,2-trifluoroethoxy)-N-(6-dimethylamino-4-trifluoromethyl-pyridin-2-yl)-1H-benzimidazole-5-carboxamide] was 96%.

Take `O=C(NCc1ncccc1C(F)F)c1cc2nc(Nc3c(Cl)cncc3Cl)[nH]c2cc1OCC(F)(F)F` [Example 711, 2-(3,5-Dichloropyridin-4-ylamino)-N-((3-difluoromethyl-pyridin-2-yl)-methyl)-6-(2,2,2-trifluoro-ethoxy)-1H-benzimidazole-5-carboxamide]: the inhibition at 10 µM is 98%. On to `COc1cc2[nH]c(Nc3c(Cl)cncc3Cl)nc2cc1C(=O)Nc1cc(C(F)(F)F)cc(C)n1` [Example 681, 2-(3,5-Dichloro-pyridin-4-ylamino)-6-methoxy-N-(6-methyl-4-trifluoromethyl-pyridin-2-yl)-1H-benzimidazole-5-carboxamide], for which the inhibition at 10 µM was found to be 100%. On to `CCOc1cc2[nH]c(Nc3c(Cl)cncc3Cl)nc2cc1C(=O)NCc1ccccc1C(F)(F)F` [Example 689, 2-(3,5-Dichloropyridin-4-ylamino)-N-((2-trifluoromethyl-phen-1-yl)-methyl)-6-ethoxy-1H-benzimidazole-5-carboxamide], for which the inhibition at 10 µM came to 100%. In the case of `COCCOc1cc2[nH]c(Nc3c(Cl)cncc3Cl)nc2cc1C(=O)Nc1ccc(Br)cc1` [Example 685, 2-(3,5-Dichloro-pyridin-4-ylamino)-6-(2-methoxy-ethoxy)-N-(4-bromo-phenyl)-1H-benzimidazole-5-carboxamide], the inhibition at 10 µM worked out at 98%. In the case of `COc1cc2c(cc1C(=O)Nc1ccc(Br)cc1)nc(Nc1c(Cl)cncc1Cl)n2C` [Example 679, 2-(3,5-Dichloro-pyridin-4-ylamino)-6-methoxy-N-(4-bromophenyl)-1-methyl-1H-benzimidazole-5-carboxamide] it was 100%; in that of `CCOc1cc2[nH]c(Nc3c(Cl)cncc3Cl)nc2cc1C(=O)NCC(F)(F)C(F)(F)C(F)(F)C(F)(F)F` [Example 691, 2-(3,5-Dichloropyridin-4-ylamino)-N-(2,2,3,3,4,4,5,5,5-nonafluoropentyl)-6-ethoxy-1H-benzimidazole-5-carboxamide], 97%; in that of `CC(F)(F)c1cccc(NC(=O)c2cc3nc(Nc4c(Cl)cncc4Cl)[nH]c3cc2OCC(F)(F)F)n1` [Example 706], 100%.
